Data set [1] can be described thus: Repeated-dose toxicity test in mice (2), hematological test. Format: in vivo. To be noted: value when control group is set to 100, male ICR mice. The protocol:
(§1) Six-week old male ICR mice (body weight range: 27.4 to 33.7 g, the number of animals allocated to each group: 5) were used to examine the repeated-dose toxicity. A solution of each test compound was prepared by dissolution in 0.1 mol/L hydrochloric acid. Each compound was subcutaneously administered at a dose of 6.25 or 3.13 mg/kg once a day for 14 days. A sterilized physiological saline was administered to a control group. At the end of the administration period, each mouse was anesthetized with ether. An injection syringe containing a heparin solution (Novo-Heparin Injection 1000, Aventis Pharma K.K.) as an anticoagulant was used for blood collection from abdominal portion of vena cava. A hematological test was carried out for the following items.
(§2) (Hematological Test Items and Determination Methods)
(§3) Red blood cell count (RBC): Two-angle laser flow cytometry
(§4) Reticulocyte count: Flow cytometry after RNA staining

Data set [2] deals with Candida albicans TIMM1623. Nature of the data set: Antifungal action: susceptibility testing of fungi by microbroth dilution method. To be noted: Candida albicans TIMM1623, RPMI/MOPS pH 7.0, 35° C., 48 hours, 50% growth inhibition. It counts as cell-based. The protocol: Susceptibility testing of fungi was carried out using a microbroth dilution method. The medium used in the susceptibility test was RPMI1640 (RPMI/MOPS) adjusted to pH 7.0 employing 0.165 mol/L morpholinepropanesulfonic acid (MOPS) and 1.0 mol/L sodium hydroxide. A test compound was dissolved in sterile water, which was then subjected to two-fold serial dilution using 100 μL of RPMI/MOPS on a 96-well round bottom plate. Candida albicans TIMM1623 cultured overnight at 35° C. on Sabouraud agar medium was suspended in a sterilized physiological saline. The number of cells was counted under a biological microscope; a suspension of inoculum organism 2×10^3 cells/mL) was prepared using RPMI/MOPS, and 100 μL thereof was then dispensed into each well; and a microplate containing a predetermined concentration of the test compound, the medium, and fungal cells was finally prepared. The plate was cultured at 35° C. for 48 hours. After the end of cultivation, absorbance was determined at 630 nm using an automatic spectrophotometer. The lowest test compound concentration at which 50% growth inhibition was observed as compared to growth control where no test compound was added was defined as IC50.
(In general: Broth dilution looks for growth in wells or tubes with falling amounts of substance.)

Data set [3] is described as follows: Repeated-dose toxicity test in mice (1), hematological test. It counts as in vivo. Conditions: value when control group is set to 100; 6.25 mg/kg subcutaneously once a day for 7 days, male ICR mice. The protocol: as §1, with “weight range: 30.6 to 34.8” for “weight range: 27.4 to 33.7”, “30.6 to 34.8 g, the” for “27.4 to 33.7 g, the”, “dissolution in distilled water. Each compound” for “dissolution in 0.1 mol/L hydrochloric acid. Each compound”, “of 6.25 mg/kg once” for “of 6.25 or 3.13 mg/kg once”, “day for 7 days. A” for “day for 14 days. A”, “portion of the vena cava.” for “portion of vena cava.”
as §2, §3, §4

Data set [4] in a line: Vero cell proliferation inhibition test (XTT assay). It counts as cell-based. Conditions: African green monkey, Vero cells, concentration inhibiting cell proliferation by 50%. The protocol: The cytotoxicity of each compound was evaluated using Vero cells. Each test compound was dissolved in dimethylsulfoxide (DMSO), which was then subjected to serial dilution with 10% FBS-containing E'MEM and added to a 96-well plate. The cells were suspended in 10% FBS-containing E'MEM, inoculated in an amount of 3,000 cells/well (96-well plate), and cultured in a CO2 incubator at 37° C. for 3 days. The degree of growth of Vero cells was evaluated using a 2,3-bis-(2-methoxy-4-nitro-5-sulfophenyl)-5-[(phenylamino)carbonyl]-2H-tetrazolium=inner salt=monosodium salt (XTT) assay. Thus, an XTT solution containing 1 mg/mL XTT and 25 μmol/L phenazine=methosulfate (PMS) was added to each well, which was then incubated in a CO2 incubator for 2 hours, followed by determining the absorbance of the well at 450 nm (reference: 655 nm) using a micro plate reader. The absorbance ratio between the control (no added compound) and each of the wells was calculated, and the concentration (CC50; μg/mL) of compound inhibiting cell proliferation by 50% was computed.
For orientation: Formazan colour is commonly taken as a measure of viable cells.

Data set [5] in a line: Hygroscopicity test (1): storage at relative humidity of 75% for one week. Format: physicochemical. The protocol: The compound of Example 4 and the comparative compound were stored under conditions of room temperature and a relative humidity of 75% or 60° C. and a relative humidity of 75% for one week.
Data set [6] in a line: Hygroscopicity test (3): storage at 60° C. and relative humidity of 100% for one week. Format: physicochemical. Conditions: relative humidity of 100%. The protocol: The compound of Example 10 and the comparative compound were stored under conditions of 60° C. and a relative humidity of 100% for one week. As a result, the comparative compound deliquesced.
In data set [7] the test system is Trichomonas vaginalis CDC337. Nature of the data set: Antiprotozoan action. It counts as cell-based. To be noted: 48 h. The protocol: Trichomonas vaginalis CDC337 was cultured in a Diamond's trypticase-yeast-maltose medium (pH 6.8) containing 8% fetal bovine serum (FBS). The protozoan bodies which had been cultured 37° C. for 2 days were centrifuged (1,500 rpm, 10 minutes) and subjected to medium replacement with a fresh medium before adjustment to 2×10^4 bodies/mL, followed by dispensing them in an amount of 100 μL/well in a micro plate (96-well, flat bottom). The test compound was dissolved using 0.1 mol/L hydrochloric acid, which was then diluted to a predetermined concentration with the medium, followed by dispensing 100 μL/well thereof into a micro plate. The minimal test compound concentration at which the movement of the bodies was not observed after culture 37° C. under anaerobic conditions for 2 days was defined as MIC.

Data set [8] relates to Candida albicans TIMM1623. Nature of the data set: Mouse Candida infection model test (oral administration). To be noted: 1 mg/kg orally for 7 days from 2 hours after infection, cyclophosphamide-compromised mice, observed 21 days after infection. It counts as in vivo. The protocol: Candida albicans TIMM1623 on a SDA plate, which had been cultured overnight at 35° C. was suspended in a sterilized physiological saline, which was then diluted to prepare a suspension of inoculum organism. To make mice in a transiently compromised state, cyclophosphamide was intraperitoneally administered at 200 mg/kg 4 days before infection and at 100 mg/kg the next day after infection. Into the tail vein of mice was inoculated 0.2 mL of the prepared solution of inoculum Candida albicans TIMM1623 to induce infection (about 3×10^4 CFU/mouse). The test compound was suspended in 0.5% methylcellulose and orally administered at 1 mg/kg of mouse body weight. The treatment was started from 2 hours after infection and carried out for 7 days.

[9] abbreviates: 3.13 mg/kg subcutaneously once a day for 14 days.

Structures can show the parent of a compound that is named as a salt.

The IC50 is the midpoint of a concentration-inhibition curve. A higher IC50 goes with weaker potency in that assay. By CC50 is commonly meant the concentration at which the toxic effect on the cells reaches its halfway point. For orientation: MIC means the smallest concentration in the dilution series that meets the test's criterion for growth inhibition. A lower MIC goes with a more susceptible organism.

On to `N=C(N)c1ccc(OCCCC2CCN(CCCOc3ccc(C(=N)N)cc3)CC2)cc1` [Example 3, 4-{3-[4-(3-{4-[amino(imino)methyl]phenoxy}propyl)-1-piperidinyl]propoxy}benzamidine], for which, in data set [1] (setting [9]), the “Red blood cell count (RBC)” value stood at 96.4 and the “Reticulocyte count (Reticulocyte)” value was found to be 93.5. The “Red blood cell count (RBC)” value in data set [1] (6.25 mg/kg subcutaneously once a day for 14 days) was 98.7.
Compound `N=C(N)c1ccc(OCCCC2CCN(CCCOc3ccc(C(=N)N)cc3)CC2)cc1` [Example 4, 4-{3-[4-(3-{4-[amino(imino)methyl]phenoxy}propyl)-1-piperidinyl]propoxy}benzamidine hydrochloride] had an IC50 in data set [2] not above 0.0039 µg/mL. Besides, the “Red blood cell count (RBC)” value in data set [3] amounted to 94. In data set [4], it took 25 µg/mL to reach half-maximal cytotoxicity (CC50 at 3 days). Besides, the appearance after storage entry in data set [5] (60° C.) and in data set [5] (room temperature) was “powder without any change in the appearance” in each case.
For the compound `N=C(N)c1ccc(OCCCC2CCN(CCCOc3ccc(C(=N)N)cc3)CC2)cc1` [Example 10, 4-{3-[4-(3-{4-[amino(imino)methyl]phenoxy}propyl)-1-piperidinyl]propoxy}benzamidine trihydrochloride pentahydrate], in data set [6], the deliquescence after storage entry was “did not deliquesce”. In data set [7], this compound showed an MIC of 16 µg/mL.
In the case of `NC(=NO)c1ccc(OCCCC2CCN(CCCOc3ccc(C(N)=NO)cc3)CC2)cc1` [Example 47, 4-{3-[4-(3-{4-[amino(hydroxyimino)methyl]phenoxy}propyl)-1-piperidinyl]propoxy}benzamide=oxime hydrochloride], the mice survived in data set [8] is listed as 80%.
